Laboratory results from PMC6982702, “Extensive Structure Modification on Luteolin-Cinnamic Acid Conjugates Leading to BACE1 Inhibitors with Optimal Pharmacological Properties” (Molecules, 2019).
“And” between values parts separate entries of the source, which are not always exact repeats. Equal values may be shown once. Read-outs that look alike come from different tables or passages of the source.

Assays:
Renin = target: T1, Renin (Homo sapiens, UniProt P00797); assay: Enzyme selectivity: renin inhibition; assay type: biochemical
T1 sequence (P00797 67-406): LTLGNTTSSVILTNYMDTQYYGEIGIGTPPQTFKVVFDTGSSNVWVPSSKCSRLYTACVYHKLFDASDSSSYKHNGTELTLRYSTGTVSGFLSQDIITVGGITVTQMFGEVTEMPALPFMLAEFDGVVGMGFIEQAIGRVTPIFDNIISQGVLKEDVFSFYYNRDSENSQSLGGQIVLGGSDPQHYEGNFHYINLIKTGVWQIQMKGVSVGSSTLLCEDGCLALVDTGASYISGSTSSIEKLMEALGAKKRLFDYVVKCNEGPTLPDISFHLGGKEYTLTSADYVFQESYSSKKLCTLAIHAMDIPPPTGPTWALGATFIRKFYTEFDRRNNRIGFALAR
Text: (§1) As BACE1 is a member of aspartyl protease family, its selective inhibition over other closely related proteases is required to avoid possible severe side effects.

MTT cytotoxicity assay = assay type: cell-based; conditions: human, 24 h exposure
Procedure: It is crucial for the BACE1 inhibitors to exert their activities at sub-toxic concentration, and thus their cytotoxicity was assessed in HEK293 cells by 3-[4,5-dimethylthiazol-2-yl]-2,5-diphenyl-tetrazolium bromide (MTT) assays (Table 5). […] Unfortunately, there was no obvious relationship between the structures and their cytotoxicity.
The cytotoxicity was examined by using 3-[4,5-dimethylthiazol-2-yl]-2,5-diphenyl-tetrazolium bromide (MTT) assay. HEK293T cells were seeded with complete DMEM into 96-well plates ([…], 100 µL/well), incubated at 37 °C in a humidified atmosphere with 5% CO2 for 24 h. All the compounds were diluted with the phenol red-free DMEM at a specific concentration. After 24 h of exposure to different concentrations of compound, the supernatant was removed and then 20% (v/v) MTT (5 mg/mL) diluted with fresh culture medium was added into each well and incubated for 4 h. Cells were lysed with 100 μL dimethyl sulfoxide (DMSO) and shaken for 10 min at room temperature. The absorbance in each well was detected at a wavelength of 490 nm using a Universal Microplate Reader (ELX 800 lv, BIO-TEK Instruments, Inc., Winooski, VT, USA).

BACE1 [1] = target: T2, BACE1 (Homo sapiens, UniProt P56817); assay: Kinetic analysis of BACE1 inhibition (Dixon plot); assay type: biochemical; conditions: for Ki: BACE1 substrate 250, 500, 750 nM
T2 construct: purchased PanVera Co. (Invitrogen, USA)
Procedure: The Dixon plot was used to determine the kinetics of 4l, 7c, and 7k inhibiting BACE1.
The Dixon plot is a graphical method (plot of 1/enzyme velocity (1/V) against inhibitor concentration (I)) for determination of the type of enzyme inhibition, which was used to determine the dissociation or inhibition constant (Ki) for the enzyme inhibitor complex. The Dixon plots for BACE1 inhibition were obtained in the presence of various concentrations of BACE1 substrate (250, 500, 750 nM) and the concentrations of 4l, 7c, and 7k as follows: 0.1 µM, 0.5 µM, 1.0 µM. In this way, the inhibition constants (Ki) of 4e were determined by interpretation of Dixon plots, where the value of the x-axis represents −Ki when 1/V = 0. […]
The Dixon plot is a graphical method [plot of 1/enzyme velocity (1/V) against inhibitor
concentration (I)] for determination of the type of enzyme inhibition and was used to determine the
dissociation or inhibition constant (Ki) for the enzyme inhibitor complex (Cornish-Bowden, 1974).
The Dixon plots for BACE1 inhibition were obtained in the presence of various concentrations of […]
BACE1 substrate (250, 500, 750 nM) and the concentrations of 4l, 7c and 7k as follows: 0.1 µM, 0.5 µM,
1.0µM. In this way, the inhibition constants (Ki) of 4e were determined by in terpretation of Dixon
plots, w here t he value of the X -axis represents -Ki when 1/V=0.
Figure 3. Kinetic analysis of 4l.
Figure 4. Kinetic anal ysis of 7k. […]
The BACE1 FRET assay kit was purchased from the PanVera Co. (Invitroge, USA). The assay
was carried out according to the supplied manual with modifications. Briefly, assays were
performed in triplicate in 384-well black plates with a mixture of 5 μL of BACE1 (1.0 U/ml), 5 μL of
the substrate (750 nM, Rh-[…]- Quencherin 50 mM, ammonium bicarbonate), and 5 μL of
compound dissolved in 10% DMSO. The fluorescence intensity was measured with a TECAN
infinite 200 microplate reader for 60 min at 25 °C in the dark. The mixture was irradiated at 544 nm
and the emission intensity recorded at 590 nm. The percent inhibition (%) was obtained by the
following equation: Inhibition % = (1-SS/SC) × 100%, where SC is the slope of fluorescence change of
the control (enzyme, buffer, and substrate) during 60 min, and SS is the slope of fluorescence change
of the tested samples (enzyme, sample solution, and substrate) during 60 min of measurement. […]

BACE1 [2] = target: T2, BACE1; assay: In vitro BACE1 FRET enzyme assay; assay type: biochemical; conditions: for inhibition at 10 µM: read-out: Inhibition Rate at 10 μM (%); for selectivity on BACE1 over BACE2 and renin: from IC50 values of Table 6
Procedure: The BACE1 FRET assay kit was purchased from the PanVera Co. (Invitrogen, USA). The assay was carried out according to the supplied manual with modifications. […] The fluorescence intensity was measured with a TECAN infinite 200 microplate reader for 60 min at 25 °C in the dark. […] The percent inhibition (%) was obtained by the following equation: Inhibition % = (1 −SS/SC) × 100%, where SC is the slope of fluorescence change of the control (enzyme, buffer, and substrate) during 60 min, and SS is the slope of fluorescence change of the tested samples (enzyme, sample solution, and substrate) during 60 min of measurement. IC50 values were calculated from the nonlinear curve fitting of percentage inhibition against inhibitor concentration using Prism 3.0 software (GraphPad Software, San Diego, CA, USA).

BACE2 = target: T3, BACE2 (Homo sapiens, UniProt Q9Y5Z0); assay: Enzyme selectivity: BACE2 inhibition; assay type: biochemical
T3 sequence (Q9Y5Z0 63-518): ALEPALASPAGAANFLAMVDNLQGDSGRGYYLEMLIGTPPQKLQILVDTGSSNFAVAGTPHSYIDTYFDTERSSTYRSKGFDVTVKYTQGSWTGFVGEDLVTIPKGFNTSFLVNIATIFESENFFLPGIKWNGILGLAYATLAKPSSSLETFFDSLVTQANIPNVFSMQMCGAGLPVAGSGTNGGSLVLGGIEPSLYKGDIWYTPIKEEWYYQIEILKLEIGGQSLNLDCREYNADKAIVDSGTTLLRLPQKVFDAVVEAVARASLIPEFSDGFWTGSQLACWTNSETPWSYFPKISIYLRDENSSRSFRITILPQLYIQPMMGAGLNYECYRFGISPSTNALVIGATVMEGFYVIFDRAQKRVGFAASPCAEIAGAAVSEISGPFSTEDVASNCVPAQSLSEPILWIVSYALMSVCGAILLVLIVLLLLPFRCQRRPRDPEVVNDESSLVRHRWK
Text: as §1

[3] = tested on: Aβ-38, Aβ-40, Aβ-42 in HEK293 cells stably overexpressing human APP695; assay: Inhibition of Aβ production in APP overexpressed cells (V-Plex Aβ Peptide Panel immunoassay); assay type: cell-based; conditions: for Aβ-42 levels / Aβ levels: DMSO = 100%; for Aβ levels: higher concentrations (10, 25, and 50 µM), 23 h
Procedure: To assess the cellular BACE1 inhibitory activity of the conjugates, 7a–d, 7i, and 7k were incubated in APP overexpressing HEK293 cells and their inhibition on the three main Aβ species Aβ-38, Aβ-40, and Aβ-42—the main amyloidogenic peptides produced by BACE1 cleavage of APP peptide—was measured by an ELISA-like immunoassay method. Aβ levels were normalized to the protein concentration in the lysate in order to rule out differences in total cell number per well of the culture plate. Additionally, the normalized Aβ level was set to 100% for the DMSO-treated control.
HEK293 cells stably overexpressing human APP695 were plated in a poly-D-lysine-coated 96-well plates and grown to a density of 80–90%. Compounds were dissolved in DMSO to make a 10 mM stock solution and diluted in DMEM complete medium to the final concentrations: 0.1, 1.0, 5.0, 10.0, 25.0, and 50.0 µM. DMSO was used at a 1:200 dilution as a negative control and a commercially available BACE1 inhibitor (C3, also known as BACE inhibitor IV) as a positive control. After 23 h of incubation, the cell supernatants were directly used for measurement in the V-Plex Aβ Peptide Panel 1 (6E10) Kit from Meso Scale Diagnostics (Rockville, MD, USA) for measuring Aβ38, −40, and −42 simultaneously. Cells were washed with PBS and lysed in Triton X100 lysis buffer for subsequent protein concentration (BCA) measurement.

BACE1 [4] = target: T2, BACE1; parameters: method as in PMID 31557620; conditions: previous work ref 13; cited from earlier work
[5] = HEK293 cells (method text: HEK293T)
[6] = BACE1 FRET assay, 10 μM compound

T2 sequence (P56817 46-501): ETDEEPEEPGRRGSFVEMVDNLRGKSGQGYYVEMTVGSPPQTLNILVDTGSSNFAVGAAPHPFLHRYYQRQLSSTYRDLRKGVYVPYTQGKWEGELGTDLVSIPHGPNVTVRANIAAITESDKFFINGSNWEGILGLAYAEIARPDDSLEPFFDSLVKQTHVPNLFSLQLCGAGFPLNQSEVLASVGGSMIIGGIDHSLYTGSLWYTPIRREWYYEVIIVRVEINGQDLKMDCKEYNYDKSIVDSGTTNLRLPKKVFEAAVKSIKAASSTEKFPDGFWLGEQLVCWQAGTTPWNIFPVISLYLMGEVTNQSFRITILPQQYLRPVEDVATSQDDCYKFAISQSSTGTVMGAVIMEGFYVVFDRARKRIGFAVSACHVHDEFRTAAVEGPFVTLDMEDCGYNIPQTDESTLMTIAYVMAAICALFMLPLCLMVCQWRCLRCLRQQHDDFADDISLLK

IC50 (Renin) [µM] | mode of BACE1 inhibition (BACE1 [1]) | Ki (BACE1 [1]) [µM] | IC50 (BACE1 [2]; BACE1 FRET assay) | inhibition at 10 µM (BACE1 [2]; [6]) [%] | enhancement of BACE1 inhibitory activity compared with the flavone segment 1 or conjugate 3 (BACE1 [2]; from IC50) [fold] | IC50 (BACE2) [µM] | SMILES | IC50 at 24 h (MTT cytotoxicity assay; [5]) [µM] | selectivity on BACE1 over BACE2 and renin (BACE1 [2]) | Aβ-42 levels [3] | Aβ levels [3] | Inhibition Rate at 10 μM (%) (BACE1 [2]; BACE1 FRET assay, 10 μM compound, 10 µM) | IC50 at 24 h (MTT cytotoxicity assay; HEK293 cells (method text: HEK293T cells)) [µM] | Aβ-42 level ([3]; 25 µM) | mode of BACE1 inhibition (BACE1 [4])
> 100 | mix-competitive mode | 0.32 | 0.15 µM | 54.4 ± 3.5 | ~10 | > 100 | O=C(/C=C/c1cccnc1)OCCOc1cc(O)c2c(=O)cc(-c3ccc(O)c(O)c3)oc2c1 [Compound 7k, (E)-2-((2-(3,4-dihydroxyphenyl)-5-hydroxy-4-oxo-4H-chromen-7-yl)oxy)ethyl 3-(pyridin-3-yl)acrylate] | > 100 | 2–3 orders of magnitude | increased Aβ-42 levels | did not reduce Aβ levels |  |  |  | 
 | mix-competitive mode | 0.8 | 2.47 ± 0.17 µM | 58.4 ± 10.2 |  |  | O=C(/C=C/c1ccc(O)cc1)OCCOc1cccc2c(=O)cc(-c3ccc(O)c(O)c3)oc12 [Compound 4l] |  |  |  |  |  |  |  | 
 |  |  |  | 28.9 ± 4.4 |  |  | COc1ccc(/C=C/C(=O)OCCOc2cc(O)c3c(=O)cc(-c4ccc(O)c(O)c4)oc3c2)cc1 [Compound 7i, (E)-2-((2-(3,4-dihydroxyphenyl)-5-hydroxy-4-oxo-4H-chromen-7-yl)oxy)ethyl 3-(4-methoxyphenyl)acrylate] | 3.94 |  | increased Aβ-42 levels | did not reduce Aβ levels |  |  |  | 

Continued, molecule first:

SMILES | IC50 (Renin) [µM] | mode of BACE1 inhibition (BACE1 [1]) | Ki (BACE1 [1]) [µM] | IC50 (BACE1 [2]; BACE1 FRET assay) | inhibition at 10 µM (BACE1 [2]; [6]) [%] | enhancement of BACE1 inhibitory activity compared with the flavone segment 1 or conjugate 3 (BACE1 [2]; from IC50) [fold] | IC50 (BACE2) [µM] | IC50 at 24 h (MTT cytotoxicity assay; [5]) [µM] | selectivity on BACE1 over BACE2 and renin (BACE1 [2]) | Aβ-42 levels [3] | Aβ levels [3] | Inhibition Rate at 10 μM (%) (BACE1 [2]; BACE1 FRET assay, 10 μM compound, 10 µM) | IC50 at 24 h (MTT cytotoxicity assay; HEK293 cells (method text: HEK293T cells)) [µM] | Aβ-42 level ([3]; 25 µM) | mode of BACE1 inhibition (BACE1 [4])
O=C(/C=C/c1ccc(O)cc1)NCCOc1cc(O)c2c(=O)cc(-c3ccc(O)c(O)c3)oc2c1 [Compound 8] | 25.4 |  |  | 4.15 ± 1.97 µM | 59.5 ± 4.4 |  | > 100 | > 100 |  |  |  |  |  |  | 
O=c1cc(-c2ccc(O)c(O)c2)oc2cc(O)cc(O)c12 [Compound 1, luteolin] |  |  |  |  | 68.6 ± 8.9 |  |  | 39.8 |  |  | dose-dependently reduced Aβ levels | 64.8 ± 6.0 |  |  | 
O=C(/C=C/c1cccc(O)c1)OCCOc1cc(O)c2c(=O)cc(-c3ccc(O)c(O)c3)oc2c1 [Compound 7c] | > 100 | non-competitive inhibitor | 1.2 | 1.44 ± 0.18 µM | 66.7 ± 8.3 |  | > 100 |  | 2–3 orders of magnitude |  |  |  | 90 | obvious inhibition | 
O=C(/C=C/c1ccc(O)cc1)OCCOc1cc(O)c2c(=O)cc(-c3ccc(O)c(O)c3)oc2c1 [Compound 3] |  |  |  | 2.19 µM and 1.87 µM | 64.8 ± 6 |  |  | 62.4 |  |  |  |  |  |  | non-competitive inhibitor
